Experiments:
Test in all cases: radiometric filter-binding kinase assay
[1] = test system: AKT2 (human), P31751 [S474D]
BRSK2 (human) = BRSK2 (human) (UniProt Q8IWQ3)
CAMKK2 (human) = CAMKK2 (human) (UniProt Q96RR4)
CLK2 (human) = CLK2 (human) (UniProt P49760)
CSK (human) = CSK (human) (UniProt P41240)
DAPK1 (human) = DAPK1 (human) (UniProt P53355)
EPHA4 (human) = EPHA4 (human) (UniProt P54764)
EPHB1 (human) = EPHB1 (human) (UniProt P54762)
EPHB3 (human) = EPHB3 (human) (UniProt P54753)
EPHB4 (human) = EPHB4 (human) (UniProt P54760)
GSK3B (human) = GSK3B (human) (UniProt P49841)
HIPK1 (human) = HIPK1 (human) (UniProt Q86Z02)
HIPK2 (human) = HIPK2 (human) (UniProt Q9H2X6)
HIPK3 (human) = HIPK3 (human) (UniProt Q9H422)
IGF1R (human) = IGF1R (human) (UniProt P08069)
INSR (human) = INSR (human) (UniProt P06213)
LCK (mouse) = conditions: accession and sequence are those of the human protein
MAP3K1 (human) = MAP3K1 (human) (UniProt Q13233)
MAP3K5 (human) = MAP3K5 (human) (UniProt Q99683)
MAP3K7 TAB1 (human) = MAP3K7 TAB1 (human) (UniProt Q15750+O43318)
MAP3K9 (human) = MAP3K9 (human) (UniProt P80192)
MAPK1 (human) = MAPK1 (human) (UniProt P28482)
MAPK11 (human) = MAPK11 (human) (UniProt Q15759)
MAPK13 (human) = MAPK13 (human) (UniProt O15264)
MARK4 (human) = MARK4 (human) (UniProt Q96L34)
PAK6 (human) = PAK6 (human) (UniProt Q9NQU5)
PAK7 (human) = PAK7 (human) (UniProt Q9P286)
PKN2 (human) = PKN2 (human) (UniProt Q16513)
PLK1 (human) = PLK1 (human) (UniProt P53350)
PRKAA1 or PRKAA2 (rat) = conditions: accession and sequence are those of the human protein
PRKCZ (human) = PRKCZ (human) (UniProt Q05513)
ROCK2 (rat) = conditions: accession and sequence are those of the human protein
RPS6KA5 KD1 KD2 (human) = RPS6KA5 KD1 KD2 (human) (UniProt O75582)
SRC (human) = SRC (human) (UniProt P12931)
SYK (human) = SYK (human) (UniProt P43405)
YES1 (human) = YES1 (human) (UniProt P07947)
Chain of YES1 (human) (P07947 whole entry, looked up): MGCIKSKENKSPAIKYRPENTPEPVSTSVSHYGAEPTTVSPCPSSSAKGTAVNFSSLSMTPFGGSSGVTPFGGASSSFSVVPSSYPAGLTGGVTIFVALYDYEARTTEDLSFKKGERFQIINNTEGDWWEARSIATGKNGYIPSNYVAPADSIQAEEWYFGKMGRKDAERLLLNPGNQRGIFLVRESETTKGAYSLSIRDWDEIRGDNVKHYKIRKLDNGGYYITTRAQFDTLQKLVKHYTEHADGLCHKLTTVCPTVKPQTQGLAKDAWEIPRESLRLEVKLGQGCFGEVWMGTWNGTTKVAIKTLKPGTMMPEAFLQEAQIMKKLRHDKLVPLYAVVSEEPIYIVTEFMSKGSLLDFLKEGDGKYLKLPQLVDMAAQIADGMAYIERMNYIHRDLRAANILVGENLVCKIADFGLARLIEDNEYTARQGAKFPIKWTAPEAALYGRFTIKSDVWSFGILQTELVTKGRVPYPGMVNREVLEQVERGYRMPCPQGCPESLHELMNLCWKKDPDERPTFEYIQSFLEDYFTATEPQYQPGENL

Chain of MAPK11 (human) (Q15759 whole entry, looked up): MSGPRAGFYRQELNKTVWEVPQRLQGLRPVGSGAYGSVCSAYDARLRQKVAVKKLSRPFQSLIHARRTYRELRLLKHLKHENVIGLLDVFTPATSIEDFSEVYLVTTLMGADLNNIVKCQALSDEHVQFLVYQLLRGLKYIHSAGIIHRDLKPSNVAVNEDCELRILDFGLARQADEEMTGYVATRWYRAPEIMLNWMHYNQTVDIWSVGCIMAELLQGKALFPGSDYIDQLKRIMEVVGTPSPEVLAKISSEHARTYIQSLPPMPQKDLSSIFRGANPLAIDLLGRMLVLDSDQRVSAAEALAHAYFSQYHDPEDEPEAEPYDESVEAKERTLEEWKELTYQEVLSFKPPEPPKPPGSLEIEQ
Chain of GSK3B (human) (P49841 whole entry, looked up): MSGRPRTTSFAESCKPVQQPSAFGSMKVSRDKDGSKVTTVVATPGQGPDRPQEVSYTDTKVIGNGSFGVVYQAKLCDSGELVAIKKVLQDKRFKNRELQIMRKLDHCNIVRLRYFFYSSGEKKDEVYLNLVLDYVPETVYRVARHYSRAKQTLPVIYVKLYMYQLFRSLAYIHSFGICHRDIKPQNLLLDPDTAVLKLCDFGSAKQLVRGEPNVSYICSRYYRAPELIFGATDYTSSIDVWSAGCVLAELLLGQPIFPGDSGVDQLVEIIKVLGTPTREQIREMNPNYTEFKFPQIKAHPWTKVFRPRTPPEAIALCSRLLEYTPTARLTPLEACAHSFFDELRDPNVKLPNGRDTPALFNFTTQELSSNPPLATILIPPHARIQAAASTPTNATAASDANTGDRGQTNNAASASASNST
Chain of EPHB3 (human) (P54753 whole entry, looked up): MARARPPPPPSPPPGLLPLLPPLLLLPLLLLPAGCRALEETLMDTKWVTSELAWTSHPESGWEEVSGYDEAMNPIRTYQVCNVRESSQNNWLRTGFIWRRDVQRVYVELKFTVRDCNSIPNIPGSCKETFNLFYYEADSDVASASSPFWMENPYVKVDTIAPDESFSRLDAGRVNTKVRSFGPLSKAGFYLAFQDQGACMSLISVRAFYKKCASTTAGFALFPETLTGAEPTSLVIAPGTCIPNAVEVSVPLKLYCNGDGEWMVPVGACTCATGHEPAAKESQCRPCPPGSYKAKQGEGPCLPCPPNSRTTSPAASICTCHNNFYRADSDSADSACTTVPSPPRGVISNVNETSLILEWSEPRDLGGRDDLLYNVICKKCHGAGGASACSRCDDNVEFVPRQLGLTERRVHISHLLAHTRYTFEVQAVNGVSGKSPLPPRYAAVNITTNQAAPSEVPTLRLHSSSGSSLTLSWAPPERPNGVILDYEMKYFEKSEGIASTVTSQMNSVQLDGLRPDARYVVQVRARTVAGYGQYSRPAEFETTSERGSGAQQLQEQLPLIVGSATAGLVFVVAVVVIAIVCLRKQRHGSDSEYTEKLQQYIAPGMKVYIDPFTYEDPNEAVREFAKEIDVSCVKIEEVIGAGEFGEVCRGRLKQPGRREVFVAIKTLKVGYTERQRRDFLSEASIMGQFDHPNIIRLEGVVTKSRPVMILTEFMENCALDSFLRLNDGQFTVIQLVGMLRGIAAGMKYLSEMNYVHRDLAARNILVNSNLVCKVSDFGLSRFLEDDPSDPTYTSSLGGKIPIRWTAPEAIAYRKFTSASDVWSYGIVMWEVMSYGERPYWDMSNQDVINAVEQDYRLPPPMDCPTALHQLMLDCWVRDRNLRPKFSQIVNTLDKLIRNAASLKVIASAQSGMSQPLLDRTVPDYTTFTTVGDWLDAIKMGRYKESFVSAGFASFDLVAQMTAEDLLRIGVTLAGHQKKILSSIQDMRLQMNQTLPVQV
Chain of EPHA4 (human) (P54764 whole entry, looked up): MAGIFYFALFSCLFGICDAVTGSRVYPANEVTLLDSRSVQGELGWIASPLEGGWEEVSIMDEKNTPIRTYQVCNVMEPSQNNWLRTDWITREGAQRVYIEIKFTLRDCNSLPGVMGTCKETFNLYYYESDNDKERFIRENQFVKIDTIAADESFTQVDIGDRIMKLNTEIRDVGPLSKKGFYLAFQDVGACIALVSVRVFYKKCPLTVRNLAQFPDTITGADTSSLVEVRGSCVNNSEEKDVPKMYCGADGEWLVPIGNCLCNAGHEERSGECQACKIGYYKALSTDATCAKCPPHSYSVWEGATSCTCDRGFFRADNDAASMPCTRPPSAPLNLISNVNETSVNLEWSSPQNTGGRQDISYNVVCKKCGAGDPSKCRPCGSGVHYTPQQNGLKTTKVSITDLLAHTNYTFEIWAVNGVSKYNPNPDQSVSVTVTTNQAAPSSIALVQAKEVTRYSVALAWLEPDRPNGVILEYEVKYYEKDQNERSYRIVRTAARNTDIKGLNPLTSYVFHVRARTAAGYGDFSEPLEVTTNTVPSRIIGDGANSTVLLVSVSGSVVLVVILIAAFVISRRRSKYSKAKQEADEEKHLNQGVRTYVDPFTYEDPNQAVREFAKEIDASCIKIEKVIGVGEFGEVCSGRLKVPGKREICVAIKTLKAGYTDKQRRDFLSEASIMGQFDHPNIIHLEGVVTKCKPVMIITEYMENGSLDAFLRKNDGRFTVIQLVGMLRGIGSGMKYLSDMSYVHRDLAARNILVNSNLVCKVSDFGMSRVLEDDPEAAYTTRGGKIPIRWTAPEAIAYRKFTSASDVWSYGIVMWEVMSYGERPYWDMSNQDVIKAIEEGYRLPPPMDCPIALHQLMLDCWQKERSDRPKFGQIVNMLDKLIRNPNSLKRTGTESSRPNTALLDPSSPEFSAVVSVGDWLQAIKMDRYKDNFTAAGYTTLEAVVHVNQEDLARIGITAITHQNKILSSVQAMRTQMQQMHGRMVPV
Chain of HIPK2 (human) (Q9H2X6 whole entry, looked up): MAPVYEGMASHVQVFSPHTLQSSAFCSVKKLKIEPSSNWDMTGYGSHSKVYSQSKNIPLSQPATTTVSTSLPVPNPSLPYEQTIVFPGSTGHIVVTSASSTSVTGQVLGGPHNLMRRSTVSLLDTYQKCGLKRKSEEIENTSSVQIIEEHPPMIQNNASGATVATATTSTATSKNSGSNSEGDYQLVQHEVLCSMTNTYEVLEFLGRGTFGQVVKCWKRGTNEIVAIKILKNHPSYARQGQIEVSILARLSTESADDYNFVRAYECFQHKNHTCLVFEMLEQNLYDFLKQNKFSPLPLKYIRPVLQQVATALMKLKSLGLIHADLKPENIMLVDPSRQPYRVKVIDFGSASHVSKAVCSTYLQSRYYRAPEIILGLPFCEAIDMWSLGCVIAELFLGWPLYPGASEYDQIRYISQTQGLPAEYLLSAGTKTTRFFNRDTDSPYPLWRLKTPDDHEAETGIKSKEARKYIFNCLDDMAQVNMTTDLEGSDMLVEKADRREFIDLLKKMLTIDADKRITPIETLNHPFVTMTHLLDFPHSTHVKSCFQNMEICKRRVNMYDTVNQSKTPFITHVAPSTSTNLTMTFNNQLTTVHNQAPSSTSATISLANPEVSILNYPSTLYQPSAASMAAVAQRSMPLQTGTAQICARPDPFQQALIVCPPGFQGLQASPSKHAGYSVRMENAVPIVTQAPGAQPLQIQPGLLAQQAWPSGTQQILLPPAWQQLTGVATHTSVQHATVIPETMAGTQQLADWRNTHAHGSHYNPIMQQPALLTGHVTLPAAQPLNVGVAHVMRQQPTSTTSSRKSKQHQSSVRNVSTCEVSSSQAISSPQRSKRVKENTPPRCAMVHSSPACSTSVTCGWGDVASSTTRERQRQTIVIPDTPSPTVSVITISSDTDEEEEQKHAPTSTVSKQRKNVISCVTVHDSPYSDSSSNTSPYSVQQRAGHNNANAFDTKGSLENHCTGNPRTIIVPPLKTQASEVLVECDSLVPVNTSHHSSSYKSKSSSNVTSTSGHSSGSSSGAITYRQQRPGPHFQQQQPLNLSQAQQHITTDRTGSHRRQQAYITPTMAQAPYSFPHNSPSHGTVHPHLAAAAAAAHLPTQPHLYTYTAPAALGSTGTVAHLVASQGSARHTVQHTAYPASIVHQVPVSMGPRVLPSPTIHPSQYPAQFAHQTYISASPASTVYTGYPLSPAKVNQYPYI
Chain of CLK2 (human) (P49760 whole entry, looked up): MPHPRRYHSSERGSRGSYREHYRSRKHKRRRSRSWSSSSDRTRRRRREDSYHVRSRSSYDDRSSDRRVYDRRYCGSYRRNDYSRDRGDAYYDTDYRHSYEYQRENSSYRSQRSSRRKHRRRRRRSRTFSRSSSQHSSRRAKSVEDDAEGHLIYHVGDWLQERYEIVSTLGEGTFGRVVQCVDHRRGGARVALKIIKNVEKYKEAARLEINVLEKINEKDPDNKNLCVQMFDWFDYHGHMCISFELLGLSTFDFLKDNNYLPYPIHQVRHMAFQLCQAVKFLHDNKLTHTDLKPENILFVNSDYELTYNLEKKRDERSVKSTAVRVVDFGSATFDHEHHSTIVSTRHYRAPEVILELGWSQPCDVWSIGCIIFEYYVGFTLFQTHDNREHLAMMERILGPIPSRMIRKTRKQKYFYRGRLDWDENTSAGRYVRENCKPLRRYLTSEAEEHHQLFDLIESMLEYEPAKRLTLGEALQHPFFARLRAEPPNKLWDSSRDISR

residual activity ([1]; compound 0.1 µM): 80% | residual activity ([1]; compound 1.0 µM): 94% | residual activity ([1]; compound 10.0 µM): 46% | residual activity (BRSK2 (human); compound 0.1 µM): 88% | residual activity (BRSK2 (human); compound 1.0 µM): 80% | residual activity (BRSK2 (human); compound 10.0 µM): 40% | residual activity (CAMKK2 (human); compound 0.1 µM): 22% | residual activity (CAMKK2 (human); compound 1.0 µM): 19% | residual activity (CAMKK2 (human); compound 10.0 µM): 19% | residual activity (CLK2 (human); compound 0.1 µM): 3% | residual activity (CLK2 (human); compound 1.0 µM): 3% | residual activity (CLK2 (human); compound 10.0 µM): 1% | residual activity (CSK (human); compound 0.1 µM): 103% | residual activity (CSK (human); compound 1.0 µM): 88% | residual activity (CSK (human); compound 10.0 µM): 9% | residual activity (DAPK1 (human); compound 0.1 µM): 99% | residual activity (DAPK1 (human); compound 1.0 µM): 96% | residual activity (DAPK1 (human); compound 10.0 µM): 63% | residual activity (EPHA4 (human); compound 0.1 µM): 22% | residual activity (EPHA4 (human); compound 1.0 µM): 29% | residual activity (EPHA4 (human); compound 10.0 µM): 0% | residual activity (EPHB1 (human); compound 0.1 µM): 53% | residual activity (EPHB1 (human); compound 1.0 µM): 36% | residual activity (EPHB3 (human); compound 0.1 µM): 22% | residual activity (EPHB3 (human); compound 1.0 µM): 20% | residual activity (EPHB3 (human); compound 10.0 µM): 6% | residual activity (EPHB4 (human); compound 0.1 µM): 15% | residual activity (EPHB4 (human); compound 1.0 µM): 13% | residual activity (EPHB4 (human); compound 10.0 µM): 4% | residual activity (GSK3B (human); compound 0.1 µM): 46% | residual activity (GSK3B (human); compound 1.0 µM): 41% | residual activity (GSK3B (human); compound 10.0 µM): 37% | residual activity (HIPK1 (human); compound 0.1 µM): 45% | residual activity (HIPK1 (human); compound 1.0 µM): 42% | residual activity (HIPK1 (human); compound 10.0 µM): 5% | residual activity (HIPK2 (human); compound 0.1 µM): 14% | residual activity (HIPK2 (human); compound 1.0 µM): 13% | residual activity (HIPK2 (human); compound 10.0 µM): 5% | residual activity (HIPK3 (human); compound 0.1 µM): 30% | residual activity (HIPK3 (human); compound 1.0 µM): 31% | residual activity (HIPK3 (human); compound 10.0 µM): 17% | residual activity (IGF1R (human); compound 0.1 µM): 2% | residual activity (IGF1R (human); compound 1.0 µM): 2% | residual activity (IGF1R (human); compound 10.0 µM): 2% | residual activity (INSR (human); compound 0.1 µM): 19% | residual activity (INSR (human); compound 1.0 µM): 14% | residual activity (INSR (human); compound 10.0 µM): 1% | residual activity (LCK (mouse); compound 0.1 µM): 43% | residual activity (LCK (mouse); compound 1.0 µM): 13% | residual activity (LCK (mouse); compound 10.0 µM): 5% | residual activity (MAP3K1 (human); compound 0.1 µM): 46% | residual activity (MAP3K1 (human); compound 1.0 µM): 35% | residual activity (MAP3K1 (human); compound 10.0 µM): 5% | residual activity (MAP3K5 (human); compound 0.1 µM): 106% | residual activity (MAP3K5 (human); compound 1.0 µM): 101% | residual activity (MAP3K7 TAB1 (human); compound 0.1 µM): 107% | residual activity (MAP3K7 TAB1 (human); compound 1.0 µM): 84% | residual activity (MAP3K7 TAB1 (human); compound 10.0 µM): 27% | residual activity (MAP3K9 (human); compound 0.1 µM): 78% | residual activity (MAP3K9 (human); compound 1.0 µM): 69% | residual activity (MAP3K9 (human); compound 10.0 µM): 17% | residual activity (MAPK1 (human); compound 0.1 µM): 99% | residual activity (MAPK1 (human); compound 1.0 µM): 103% | residual activity (MAPK1 (human); compound 10.0 µM): 85% | residual activity (MAPK11 (human); compound 0.1 µM): 87% | residual activity (MAPK11 (human); compound 1.0 µM): 76% | residual activity (MAPK11 (human); compound 10.0 µM): 48% | residual activity (MAPK13 (human); compound 0.1 µM): 97% | residual activity (MAPK13 (human); compound 1.0 µM): 24% | residual activity (MAPK13 (human); compound 10.0 µM): 5% | residual activity (MARK4 (human); compound 0.1 µM): 101% | residual activity (MARK4 (human); compound 1.0 µM): 118% | residual activity (MARK4 (human); compound 10.0 µM): 43% | residual activity (PAK6 (human); compound 0.1 µM): 71% | residual activity (PAK6 (human); compound 1.0 µM): 72% | residual activity (PAK6 (human); compound 10.0 µM): 27% | residual activity (PAK7 (human); compound 0.1 µM): 62% | residual activity (PAK7 (human); compound 1.0 µM): 58% | residual activity (PAK7 (human); compound 10.0 µM): 22% | residual activity (PKN2 (human); compound 0.1 µM): 80% | residual activity (PKN2 (human); compound 1.0 µM): 78% | residual activity (PKN2 (human); compound 10.0 µM): 32% | residual activity (PLK1 (human); compound 0.1 µM): 97% | residual activity (PLK1 (human); compound 1.0 µM): 85% | residual activity (PLK1 (human); compound 10.0 µM): 114% | residual activity (PRKAA1 or PRKAA2 (rat); compound 0.1 µM): 63% | residual activity (PRKAA1 or PRKAA2 (rat); compound 1.0 µM): 47% | residual activity (PRKAA1 or PRKAA2 (rat); compound 10.0 µM): 3% | residual activity (PRKCZ (human); compound 0.1 µM): 104% | residual activity (PRKCZ (human); compound 1.0 µM): 98% | residual activity (PRKCZ (human); compound 10.0 µM): 58% | residual activity (ROCK2 (rat); compound 0.1 µM): 90% | residual activity (ROCK2 (rat); compound 1.0 µM): 82% | residual activity (ROCK2 (rat); compound 10.0 µM): 63% | residual activity (RPS6KA5 KD1 KD2 (human); compound 0.1 µM): 59% | residual activity (RPS6KA5 KD1 KD2 (human); compound 1.0 µM): 51% | residual activity (RPS6KA5 KD1 KD2 (human); compound 10.0 µM): 22% | residual activity (SRC (human); compound 0.1 µM): 22% | residual activity (SRC (human); compound 1.0 µM): 20% | residual activity (SRC (human); compound 10.0 µM): 2% | residual activity (SYK (human); compound 0.1 µM): 82% | residual activity (SYK (human); compound 1.0 µM): 64% | residual activity (SYK (human); compound 10.0 µM): 28% | residual activity (YES1 (human); compound 0.1 µM): 11% | residual activity (YES1 (human); compound 1.0 µM): 11% | residual activity (YES1 (human); compound 10.0 µM): 6%
Structure (SMILES): Cc1ccc(Sc2cnc(Nc3cccc(Br)n3)s2)cc1C(=O)N1CCN(C(=O)CN)CC1
